According to ChEMBL document CHEMBL1781971, “Discovery of 5-(arenethynyl) hetero-monocyclic derivatives as potent inhibitors of BCR-ABL including the T315I gatekeeper mutant” (Bioorg Med Chem Lett, 2011):

What was measured:
[1] = Oral bioavailability in rat at 15 mg/kg; assay type: ADME, organism-based; conditions: in vivo
[2] = Half life in rat at 5 mg/kg, iv; assay type: ADME, organism-based; set-up: dose 5 mg/kg, route intravenous; conditions: in vivo
[3] = Cmax in rat at 15 mg/kg, po; assay type: ADME, organism-based; set-up: dose 15 mg/kg, route oral; conditions: in vivo
[4] = cells; conditions: Mus musculus, BaF3
[5] = molecular target: Tyrosine-protein kinase ABL1 (Homo sapiens, UniProt P00519)
[6] = Volume of distribution in rat at 5 mg/kg, iv; assay type: ADME, organism-based; set-up: dose 5 mg/kg, route intravenous; conditions: in vivo
[7] = Plasma concentration in mouse after 6 hrs at 30 mg/kg, po; assay type: ADME, organism-based; set-up: dose 30 mg/kg, route oral
[8] = Half life in rat at 15 mg/kg, po; assay type: ADME, organism-based; set-up: dose 15 mg/kg, route oral; conditions: in vivo
[9] = test system: Rattus norvegicus; experiment: AUC in rat at 5 mg/kg, iv; assay type: ADME, organism-based, Plasma; set-up: dose 5 mg/kg, route intravenous; conditions: in vivo
[10] = Cmax in rat at 5 mg/kg, iv; assay type: ADME, organism-based; set-up: dose 5 mg/kg, route intravenous; conditions: in vivo
[11] = cells; conditions: Mus musculus, BaF3; remark: listed apart in the source
Description: Antiproliferative activity against BCR-ABL-negative parental mouse BA/F3 cells

[12] = Clearance in rat at 5 mg/kg, iv; assay type: ADME, organism-based; set-up: dose 5 mg/kg, route intravenous; conditions: in vivo
[13] = cells; conditions: Mus musculus, BaF3; remark: listed apart in the source
Description: Antiproliferative activity against mouse BA/F3 cells expressing wild type BCR-ABL

[14] = molecular target: Tyrosine-protein kinase ABL1 (Homo sapiens, UniProt P00519, T315I)
[15] = test system: Rattus norvegicus; experiment: AUC in rat at 15 mg/kg, po; assay type: ADME, organism-based, Plasma; set-up: dose 15 mg/kg, route oral; conditions: in vivo

Row | SMILES | bioavailability [1] [%] | half-life [2] [h] | Cmax [3] [ng/mL] | IC50 [4] [nM] | IC50 [5] [nM] | Vd [6] [L/kg] | concentration at 6 h [7] [ng/mL] | half-life [8] [h] | AUC [9] [h/ng/mL] | Cmax [10] [ng/mL] | IC50 [11] [nM] | clearance [12] [mL/min/kg] | IC50 [13] [nM] | IC50 [14] [nM] | AUC [15] [h/ng/mL]
1 | Cc1ccc(C(=O)Nc2ccc(CN3CCN(C)CC3)c(C(F)(F)F)c2)cc1C#Cc1cnc(C)n1C | – | – | – | 69 | 72.6 | – | – | – | – | – | 1790 | – | 8.5 | 362 | –
2 | Cc1ccc(C(=O)Nc2ccc(CN3CCN(C)CC3)c(C(F)(F)F)c2)cc1C#Cc1cncn1C | – | – | – | 709 | 129 | – | – | – | – | – | 5650 | – | 43 | 550 | –
3 | Cc1ccc(C(=O)Nc2ccc(CN3CCN(C)CC3)c(C(F)(F)F)c2)cc1C#Cc1cnc(C(=O)NCCO)n1C | – | – | – | 64 | 55 | – | – | – | – | – | 1600 | – | 3.9 | 301 | –
4 | Cc1ccc(C(=O)Nc2ccc(CN3CCN(C)CC3)c(C(F)(F)F)c2)cc1C#Cc1cncnc1 | 85 | 6.2 | 900 | 65 | 62.7 | 8.5 | 771 | 10 | 5308 | 822 | 2820 | 15.7 | 3.1 | 435 | 13559
5 | Cc1ccc(C(=O)Nc2ccc(CN3CCN(C)CC3)c(C(F)(F)F)c2)cc1C#Cc1cnc[nH]1 | – | – | – | 5740 | 1000 | – | – | – | – | – | 6550 | – | 730 | 3720 | –

More lines, now with the values ahead:

Row | bioavailability [1] [%] | half-life [2] [h] | Cmax [3] [ng/mL] | IC50 [4] [nM] | IC50 [5] [nM] | Vd [6] [L/kg] | concentration at 6 h [7] [ng/mL] | half-life [8] [h] | AUC [9] [h/ng/mL] | Cmax [10] [ng/mL] | IC50 [11] [nM] | clearance [12] [mL/min/kg] | IC50 [13] [nM] | IC50 [14] [nM] | AUC [15] [h/ng/mL] | SMILES
6 | 25.3 | 7 | 258 | 7.6 | 3.6 | 9.3 | 358 | 8 | 5445 | 627 | 787 | 15.3 | 1.3 | 25 | 4144 | Cc1ccc(C(=O)Nc2ccc(CN3CCN(C)CC3)c(C(F)(F)F)c2)cc1C#Cc1cnc(C(N)=O)n1C
7 | – | – | – | 64 | 4.3 | – | – | – | – | – | 10000 | – | 7.6 | 106 | – | Cc1ccc(C(=O)Nc2ccc(CN3CCN(CC(=O)O)CC3)c(C(F)(F)F)c2)cc1C#Cc1cnc(C(N)=O)n1C
8 | – | – | – | 9.6 | 18 | – | – | – | – | – | 1790 | – | 2.2 | 121 | – | CC(=O)Nc1ccc(C#Cc2cc(C(=O)Nc3ccc(CN4CCN(C)CC4)c(C(F)(F)F)c3)ccc2C)cn1
9 | – | – | – | 18 | 48.7 | – | – | – | – | – | 1020 | – | 2.6 | 321 | – | Cc1ccc(C(=O)Nc2ccc(CN3CCN(C)CC3)c(C(F)(F)F)c2)cc1C#Cc1ccc(C(N)=O)nc1
